Data published in US8008303B2, “Biphenyl derivatives and their use in treating hepatitis C” (AstraZeneca AB, priority 2005, dated 2011).
pIC50: −log10 of the molar value. Read-outs that look alike come from different tables or passages of the source.

Key:
[1] = tested on: HCV replicon cells Huh 9B; format: cell-based
[2] = tested on: HCV replicon cells Huh 9B; assay: HCV replicon assay (luciferase readout); format: cell-based
Method in brief: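 Compounds, made up at twice final strength (final DMSO 1%), were added to subgenomic replicon cells one day after plating. Incubation then ran 72 h at 37 °C, 5% CO2, without G418. Replication was quantified as firefly luciferase luminescence in lysed cells, with cytotoxicity assessed on a duplicate clear plate.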

[3] = concentration reducing total cell area by 50% relative to DMSO controls, methylene blue, absorbance 620 nm, 72 h incubation
[4] = Hepatitis C virus, 72 h, concentration reducing replicon level (luciferase activity) by 50% vs untreated cell control, 72 h incubation

Structure (SMILES)	TD50 [1, 3]	pIC50 [2, 4]	TD50 [1]	pIC50 [2]
CS(=O)(=O)N1CCN(Cc2ccc(NC(=O)c3ccc(-c4cc(NC(=O)[C@H]5CCCN5)ccc4Cl)cc3)cc2)CC1 [Example 250, (R)-Pyrrolidine-2-carboxylic acid {6-chloro-4′-[4-(4-methanesulfonyl-piperazin-1-ylmethyl)-phenylcarbamoyl]-biphenyl-3-yl}-amide]	* (* < 50 μM)	> 6.00	–	–
CCCS(=O)(=O)N1CCN(Cc2ccc(NC(=O)c3ccc(-c4cc(NC(=O)[C@H]5CCCCN5)ccc4Cl)cc3)cc2)CC1 [Example 251, (R)-Piperidine-2-carboxylic acid {6-chloro-4′-[4-(4-(propane-1-sulfonyl)-piperazin-1-ylmethyl)-phenylcarbamoyl]-biphenyl-3-yl}-amide]	* (* < 50 μM)	> 6.00	–	–
CNCC(=O)Nc1ccc(Cl)c(-c2ccc(C(=O)Nc3ccc(CN4CCN(S(C)(=O)=O)CC4)cc3)cc2)c1 [Example 252, 2′-Chloro-5′-(2-methylamino-acetylamino)-biphenyl-4-carboxylic acid [4-(4-methanesulfonyl-piperazin-1-ylmethyl)-phenyl]-amide]	* (* < 50 μM)	> 6.00	–	–
CCCS(=O)(=O)N1CCN(Cc2ccc(NC(=O)c3ccc(-c4cc(NC(=O)NC5CCCCC5)ccc4Cl)cc3)cc2)CC1 [Example 253, 2′-Chloro-5′-(3-cyclohexyl-ureido)-biphenyl-4-carboxylic acid {4-[4-(propane-1-sulfonyl)-piperazin-1-ylmethyl]-phenyl}-amide]	* (* < 50 μM)	> 6.00	–	–
CC(C)S(=O)(=O)N1CCN(Cc2ccc(NC(=O)c3ccc(-c4cc(NC(=O)NC5CCCCC5)ccc4Cl)cc3)cc2)CC1 [Example 254, 2′-Chloro-5′-(3-cyclohexyl-ureido)-biphenyl-4-carboxylic acid {4-[4-(propane-2-sulfonyl)-piperazin-1-ylmethyl]-phenyl}-amide]	* (* < 50 μM)	> 6.00	–	–
CN(C)S(=O)(=O)N1CCN(Cc2ccc(NC(=O)c3ccc(-c4cc(NC(=O)NC5CCCCC5)ccc4Cl)cc3)cc2)CC1 [Example 255, 2′-Chloro-5′-(3-cyclohexyl-ureido)-biphenyl-4-carboxylic acid [4-(4-dimethylsulfamoyl-piperazin-1-ylmethyl]-phenyl}-amide]	* (* < 50 μM)	> 6.00	–	–
CS(=O)(=O)N1CCN(Cc2ccc(NC(=O)c3ccc(-c4cc(C(=O)Nc5ccc(N6CCOCC6)cc5)ccc4OC(F)(F)F)cc3)cc2)CC1 [Example 256, 6-Trifluoromethoxy-biphenyl-3,4′-dicarboxylic acid 4′-{[4-(4-methanesulfonyl-piperazin-1-ylmethyl)-phenyl]-amide} 3-[(4-morpholin-4-yl-phenyl)-amide]]	–	–	* (key: * < 50 μM; ** > 50 μM)	> 6.00
CCCS(=O)(=O)N1CCN(Cc2ccc(NC(=O)c3ccc(-c4cc(C(=O)Nc5ccc(N6CCOCC6)cc5)ccc4OC)cc3)cc2)CC1 [Example 257, 6-Methoxy-biphenyl-3,4′-dicarboxylic acid 3-[(4-morpholin-4-yl-phenyl)-amide] 4′-({4-[4-(propane-1-sulfonyl)-piperazin-1-ylmethyl]-phenyl}-amide)]	* (* < 50 μM)	–	–	> 6.00
COc1ccc(C(=O)Nc2ccc(N3CCOCC3)cc2)cc1-c1ccc(C(=O)Nc2ccc(CN3CCN(S(=O)(=O)C(C)C)CC3)cc2)cc1 [Example 258, 6-Methoxy-biphenyl-3,4′-dicarboxylic acid 3-[(4-morpholin-4-yl-phenyl)-amide] 4′-({4-[4-(propane-2-sulfonyl)-piperazin-1-ylmethyl]-phenyl}-amide)]	* (* < 50 μM)	–	–	> 6.00
COc1ccc(C(=O)Nc2ccc(N3CCOCC3)cc2)cc1-c1ccc(C(=O)Nc2ccc(CN3CCN(S(=O)(=O)N(C)C)CC3)cc2)cc1 [Example 259, 6-Methoxy-biphenyl-3,4′-dicarboxylic acid 4′-{[4-(4-dimethylsulfamoyl-piperazin-1-ylmethyl)-phenyl]-amide} 3-[(4-morpholin-4-yl-phenyl)-amide]]	–	–	* (key: * < 50 μM; ** > 50 μM)	> 6.00
CCCS(=O)(=O)N1CCN(Cc2ccc(NC(=O)c3ccc(-c4cc(C(=O)Nc5ccc(N6CCOCC6)cc5C)ccc4OC)cc3)cc2)CC1 [Example 260, 6-Methoxy-biphenyl-3,4′-dicarboxylic acid 3-[(2-methyl-4-morpholin-4-yl-phenyl)-amide] 4′-({4-[4-(propane-1-sulfonyl)-piperazin-1-ylmethyl]-phenyl}-amide)]	* (* < 50 μM)	–	–	> 6.00
COc1ccc(C(=O)Nc2ccc(N3CCS(=O)(=O)CC3)cc2)cc1-c1ccc(C(=O)Nc2ccc(N3CCN(C)CC3)cc2)cc1 [Example 261, 6-Methoxy-biphenyl-3,4′-dicarboxylic acid 3-{[4-(4-(1,1-dioxo-1lambda*6*-thiomorpholin-4-yl)-phenyl]-amide} 4′-{[4-(4-methyl-piperazin-1-yl)-phenyl]-amide}]	–	–	* (key: * < 50 μM; ** > 50 μM)	5.30 to 6.00
CCCCS(=O)(=O)N1CCN(Cc2ccc(NC(=O)c3ccc(-c4cc(C(=O)Nc5ccc(N6CCOCC6)cc5)ccc4Cl)cc3)cc2)CC1 [Example 263, 6-Chloro-biphenyl-3,4′-dicarboxylic acid 4′-({4-[4-(butane-1-sulfonyl)piperazin-1-ylmethyl]-phenyl}-amide) 3-[(4-morpholin-4-yl-phenyl)-amide]]	–	–	* (key: * < 50 μM; ** > 50 μM)	> 6.00
CCCS(=O)(=O)N1CCN(Cc2ccc(NC(=O)c3ccc(-c4cc(C(=O)Nc5ccc(N6CCOCC6)c(F)c5)ccc4Cl)cc3)cc2)CC1 [Example 264, 6-Chloro-biphenyl-3,4′-dicarboxylic acid 3-[(3-fluoro-4-morpholin-4-yl-phenyl)-amide] 4′-({4-[4-(propane-1-sulfonyl)-piperazin-1-ylmethyl]-phenyl}-amide)]	* (* < 50 μM)	–	–	> 6.00
CS(=O)(=O)N1CCN(Cc2ccc(NC(=O)c3ccc(Cl)c(-c4ccc(C(=O)Nc5ccc(N6CCOCC6)cc5)cc4)c3)cc2)CC1 [Example 265, 6-Chloro-biphenyl-3,4′-dicarboxylic acid 3-{[4-(4-methanesulfonyl-piperazin-1-ylmethyl)-phenyl]-amide} 4′-[(4-morpholin-4-yl-phenyl)-amide]]	–	–	* (key: * < 50 μM; ** > 50 μM)	> 6.00
